Laboratory results: PMC10387993, “New pyrimidine-N-β-D-glucosides: synthesis, biological evaluation, and molecular docking investigations” (Turkish Journal of Chemistry, 2023)
In brackets after ≈: the same amount, converted by molar mass. Like-named read-outs stand apart in the source and are kept apart here.

Key:
Assay type in all cases: cell-based
[1] = tested on: C6 (Rat brain glioma); test: cells; conditions: Rattus norvegicus; for LC50 (concentration giving 50% net cell loss relative to time zero): read-out: LC50; for GI50 / IC50 / IC (total growth inhibition): C6, MTT; for IC50: read-out: IC50; for IC (total growth inhibition): read-out: TGI
Protocol: (§1) The cell lines were cultured in a cell medium (Dulbecco’s modified eagle’s or RPMI 1640) enriched with 10% (v/v) fetal bovine serum and 2% (v/v) Penicillin-Streptomycin (10,000 U/mL). First, old medium was removed out of the flask when the cells reached approximately 80% confluence. Next, cells were taken from the flasks surface using trypsin-EDTA solution and then subjected to centrifugation. Following, the cell pellet was suspended with fresh media and was inoculated into wells.
(§2) A cell suspension containing approximately 1 × 10^4 cells in 100 μL was seeded into the wells of 96-well culture plates. […]. The final volume of the wells was set to 200 μL by medium. Cell proliferation assay was evaluated by MTT (yellow tetrazolium MTT (3-(4,5-dimethylthiazolyl-2)-2,5-diphenyltetrazolium bromide) methods. Briefly, an MTT stock solution (5 mg of MTT/mL of distilled water) was filtered and kept at −20 °C until use. The cells were exposed to an MTT reagent (consisting of one parts of MTT stock solutions and nine parts of fresh RPMI 1640 without phenol red) for 4 h to form MTT formazan dye followed by the dye dissolved in DMSO with Sorenson’s buffer for 30 min at room temperature and then the plate was measured at 560 nm, with 690 nm as a reference interval, using a microplate reader. Each experiment was repeated at least three times for each cell line.
(§3) IC50 value is a concentration that inhibits half of the cells in vitro. The half maximal inhibitory concentration (IC50) of the test and control compounds was calculated using XLfit5 or excel spreadsheet and represent in μM at 95% confidence intervals. The proliferation assay results were expressed as the percent inhibition according to the following formula: % Inhibition = [1 - (Absorbance of Treatments /Absorbance of DMSO) × 100]. Three dose response parameters (GI50, TGI, LC50) were calculated according to the following formulas using the absorbance measurements of time zero (Tz), control growth (C), and test growth in the presence of drug (Ti). Growth inhibition of 50% (GI50) was calculated from [(Ti-Tz)/(C-Tz)] × 100 = 50, which is the drug concentration resulting in a 50% reduction in the net growth increase in control cells during the drug incubation. The drug concentration resulting in total growth inhibition (TGI) was calculated from Ti = Tz. The LC50 indicating a net loss of cells following treatment was calculated from [(Ti-Tz)/Tz] × 100 = −50.

[2] = tested on: Hep3B; test: cells; conditions: Homo sapiens; for GI50 / IC50 / IC (total growth inhibition): MTT; for IC50: read-out: IC50; for IC (total growth inhibition): read-out: TGI; for LC50 (concentration causing 50% net cell loss relative to time zero): read-out: LC50
Protocol: as §1, §2, §3

[3] = in vitro; conditions: human, LC50
Protocol: as §1, §2, §3

[4] = tested on: normal FL cells; test: cells; conditions: FL normal cells, MTT; for IC50: read-out: IC50; for IC (total growth inhibition): read-out: TGI
Protocol: as §1, §2, §3

[5] = LDH cytotoxic activity assay, HeLa; conditions: human, HeLa cells
Protocol: as §1
(§4) Approximately 5 × 10^3 cells in 100 μL were placed into 96-well plates as triplicates and treated with 25, 50, 75, and 100 μg/mL concentrations of test compounds at 37 °C with 5% CO2 for 24 h. LDH activity was obtained by determining absorbance at 492–630 nm using a microplate reader.

[6] = LDH cytotoxic activity assay, HT29; conditions: human, HT29 cells; for cytotoxicity at 24 h, 25 μg/mL: HT29, 25 μg/mL; for cytotoxicity at 24 h, 50 μg/mL: HT29, 50 μg/mL; for cytotoxicity at 24 h, 75 μg/mL: HT29, 75 μg/mL; for cytotoxicity at 24 h, 100 μg/mL: HT29, 100 μg/mL
Protocol: as §1, §4

[7] = tested on: A. actinomycetemcomitans ATCC 33384; test: Microdilution MIC assay; conditions: Aggregatibacter actinomycetemcomitans, ATCC33384; A. actinomycetemcomitans ATCC 33384, 24 h at 35 °C
Protocol: (§5) MIC values of the compounds against bacterial strains were determined on the basis of a microwell dilution method. […] […]. Growth of microorganisms was determined visually after incubation for 24 h at 35 °C. The lowest concentration at which there was no visible growth (turbidity) was taken as the MIC.

[8] = tested on: E. coli ATCC 25922; test: Microdilution MIC assay; conditions: Escherichia coli, ATCC25922; E. coli ATCC 25922, 24 h at 35 °C
Protocol: as §5

[9] = tested on: E. coli ESBL ATCC 35218; test: Microdilution MIC assay; conditions: Escherichia coli, ATCC35218; E. coli ESBL ATCC 35218, 24 h at 35 °C
Protocol: as §5

[10] = tested on: E. faecalis ATCC 29212; test: Microdilution MIC assay; conditions: E. faecalis ATCC 29212, 24 h at 35 °C
Protocol: as §5

[11] = tested on: E. faecalis VRE ATCC 19433; test: Microdilution MIC assay; conditions: Enterococcus faecalis; E. faecalis VRE ATCC 19433, 24 h at 35 °C
Protocol: as §5

[12] = tested on: P. aeruginosa AGME ATCC 27853; test: Microdilution MIC assay; conditions: Pseudomonas aeruginosa, ATCC27853; P. aeruginosa AGME ATCC 27853, 24 h at 35 °C
Protocol: as §5

[13] = tested on: S. aureus ATCC 25923; test: Microdilution MIC assay; conditions: Staphylococcus aureus, ATCC25923, 24 h, S. aureus ATCC 25923, 24 h at 35 °C; read-out: MIC
Protocol: as §5

[14] = tested on: S. aureus MRSA ATCC 46300; test: Microdilution MIC assay; conditions: Staphylococcus aureus; S. aureus MRSA ATCC 46300, 24 h at 35 °C; read-out: MIC
Protocol: as §5

[15] = tested on: S. aureus MSSA ATCC 29213; test: Microdilution MIC assay; conditions: S. aureus MSSA ATCC 29213, 24 h at 35 °C
Protocol: as §5

[16] = tested on: S. gordonii NCTC 7870; test: Microdilution MIC assay; conditions: Streptococcus gordonii, NCTC7870; S. gordonii NCTC 7870, 24 h at 35 °C
Protocol: as §5

[17] = tested on: S. mutans ATCC 35668; test: Microdilution MIC assay; conditions: S. mutans ATCC 35668, 24 h at 35 °C
Protocol: as §5

[18] = Enterococcus faecalis, ATCC29212, 24 h, read-out: MIC
[19] = Staphylococcus aureus, 24 h, read-out: MIC
[20] = Streptococcus mutans, ATCC35668, 24 h, read-out: MIC

GI50 [1] | IC50 [1] | GI50 [2] | IC50 [2] | SMILES | LC50 (concentration giving 50% net cell loss relative to time zero) [1] | IC (total growth inhibition) [1] | IC (total growth inhibition) [2] | LC50 (concentration causing 50% net cell loss relative to time zero) [2] | LC50 (concentration causing 50% net cell loss) [3] | GI50 [4] | IC50 [4] | IC (total growth inhibition) [4] | cytotoxicity at 24 h, 25 μg/mL [5] | cytotoxicity at 24 h, 50 μg/mL [5] | cytotoxicity at 24 h, 75 μg/mL [5] | cytotoxicity at 24 h, 100 μg/mL [5] | cytotoxicity at 24 h, 25 μg/mL [6] | cytotoxicity at 24 h, 50 μg/mL [6] | cytotoxicity at 24 h, 75 μg/mL [6] | cytotoxicity at 24 h, 100 μg/mL [6] | further results
> 500 µg/mL | > 500 µg/mL | 4.9 µg/mL (≈ 8.27 µM) | > 500 µg/mL | CC(=O)OC[C@H]1O[C@@H](Nc2nc(-c3cccnc3)cc(-c3cccc(C)c3)n2)[C@H](OC(C)=O)[C@@H](OC(C)=O)[C@@H]1OC(C)=O [Compound 14, 2,3,4,6-tetra-O-acetyl-N-[4-(3-methylphenyl)-6-pyridin-3-ylpyrimidin-2-yl]-β-D-glucopyranosylamine] | > 500 µg/mL | > 500 µg/mL | > 500 µg/mL | > 500 µg/mL | > 500 µg/mL | 118 µg/mL (≈ 199 µM) | > 500 µg/mL | > 500 µg/mL | 16.6% | 28.8% | 33.5% | 48.8% | 21% | 44.6% | 61.8% | 72.2% | MIC [7]: > 1000 µg/mL; MIC [8]: > 1000 µg/mL; MIC [9]: > 1000 µg/mL; MIC [10]: 31.25 µg/mL (≈ 52.7 µM); MIC [10, 18]: 31.2 to 125 µg/mL (≈ 52.7 to 211 µM); MIC [11]: 1000 µg/mL (≈ 1690 µM); MIC [12]: > 1000 µg/mL; MIC [13]: 500 µg/mL (≈ 844 µM); MIC [14]: 250 µg/mL (≈ 422 µM); MIC [15]: 125 µg/mL (≈ 211 µM); MIC [15, 19]: 62.5 to 125 µg/mL (≈ 105 to 211 µM); MIC [16]: > 1000 µg/mL; MIC [17]: 62.5 µg/mL (≈ 105 µM); MIC [17, 20]: 62.5 to 125 µg/mL (≈ 105 to 211 µM)
8.13 µg/mL (≈ 19.2 µM) | 27.8 µg/mL (≈ 65.4 µM) | 4.4 µg/mL (≈ 10.4 µM) | 65.5 µg/mL (≈ 154 µM) | Cc1cccc(-c2cc(-c3ccccn3)nc(N[C@@H]3O[C@H](CO)[C@@H](O)[C@H](O)[C@H]3O)n2)c1 [Compound 4, N-[4-(3-methylphenyl)-6-pyridin-2-ylpyrimidin-2-yl]-β-D-glucopyranosylamine] | 77.4 µg/mL (≈ 182 µM) | 20.5 µg/mL | 67.8 µg/mL | > 500 µg/mL | > 500 µg/mL | 6.77 µg/mL (≈ 15.9 µM) | 78.1 µg/mL (≈ 184 µM) | 79.8 µg/mL | 26.9% | 64.3% | 77.1% | 97.2% | 28.2% | 35.7% | 62.6% | 74.9% | MIC [7]: 250 µg/mL (≈ 589 µM); MIC [8]: > 1000 µg/mL; MIC [9]: > 1000 µg/mL; MIC [10, 18]: 250 µg/mL (≈ 589 µM); MIC [11]: > 1000 µg/mL; MIC [12]: > 1000 µg/mL; MIC [13]: 250 µg/mL (≈ 589 µM); MIC [14]: 500 µg/mL (≈ 1180 µM); MIC [15, 19]: 250 µg/mL (≈ 589 µM); MIC [16]: 250 µg/mL (≈ 589 µM); MIC [17]: 125 µg/mL (≈ 294 µM); MIC [17, 20]: 62.5 to 125 µg/mL (≈ 147 to 294 µM)
9.17 µg/mL (≈ 21.6 µM) | 49.7 µg/mL (≈ 117 µM) | 3.85 µg/mL (≈ 9.07 µM) | > 500 µg/mL | Cc1ccccc1-c1cc(-c2cccnc2)nc(N[C@@H]2O[C@H](CO)[C@@H](O)[C@H](O)[C@H]2O)n1 [Compound 2, N-[4-(2-methylphenyl)-6-pyridin-3-ylpyrimidin-2-yl]-β-D-glucopyranosylamine] | 217 µg/mL (≈ 510 µM) | 31.6 µg/mL | > 500 µg/mL | > 500 µg/mL | > 500 µg/mL | 3.68 µg/mL (≈ 8.67 µM) | 457 µg/mL (≈ 1080 µM) | > 500 µg/mL | 30.5% | 47.2% | 49.7% | 72.1% | 27.7% | 44.8% | 72.7% | 94.6% | MIC [7]: 250 µg/mL (≈ 589 µM); MIC [8]: > 1000 µg/mL; MIC [9]: > 1000 µg/mL; MIC [10, 18]: > 1000 µg/mL; MIC [11]: > 1000 µg/mL; MIC [12]: > 1000 µg/mL; MIC [14]: 125 µg/mL (≈ 294 µM); MIC [15]: 125 µg/mL (≈ 294 µM); MIC [15, 19]: 62.5 to 125 µg/mL (≈ 147 to 294 µM); MIC [16]: 500 µg/mL (≈ 1180 µM); MIC [17, 20]: 1000 µg/mL (≈ 2360 µM)
4.56 µg/mL (≈ 10.7 µM) | 33.5 µg/mL (≈ 78.9 µM) | 3.61 µg/mL (≈ 8.5 µM) | 20.1 µg/mL (≈ 47.4 µM) | Cc1cccc(-c2cc(-c3cccnc3)nc(N[C@@H]3O[C@H](CO)[C@@H](O)[C@H](O)[C@H]3O)n2)c1 [Compound 5, N-[4-(3-methylphenyl)-6-pyridin-3-ylpyrimidin-2-yl]-β-D-glucopyranosylamine] | 249 µg/mL (≈ 587 µM) | 18.1 µg/mL | 20.5 µg/mL | > 500 µg/mL | > 500 µg/mL | 4.16 µg/mL (≈ 9.8 µM) | 25.3 µg/mL (≈ 59.7 µM) | 25.8 µg/mL | 19.8% | 35.3% | 40.3% | 54.3% | 24.6% | 39.4% | 75.9% | 96.8% | MIC [7]: 250 µg/mL (≈ 589 µM); MIC [8]: > 1000 µg/mL; MIC [9]: > 1000 µg/mL; MIC [10, 18]: > 1000 µg/mL; MIC [11]: > 1000 µg/mL; MIC [12]: > 1000 µg/mL; MIC [14]: 250 µg/mL (≈ 589 µM); MIC [15]: 125 µg/mL (≈ 294 µM); MIC [15, 19]: 62.5 to 125 µg/mL (≈ 147 to 294 µM); MIC [16]: 125 µg/mL (≈ 294 µM); MIC [17, 20]: 500 µg/mL (≈ 1180 µM)
